Experimental data from patent US8921372B2, “Inhibitors of hepatitis C virus” (Theravance Biopharma R&D IP, LLC, priority 2010, dated 2014).
Read-outs that look alike come from different tables or passages of the source.

What was measured:
[1] = test system: HCV genotype 1b replicon cell line (APC144; Huh7 cell background); assay: HCV Genotype 1b Replicon Assay (Renilla luciferase readout); assay type: cell-based; conditions: Hepatitis C virus, Huh-7; read-out: Genotype 1b (pEC50 class, HCV genotype 1b replicon assay) (converted)
Excerpt: Assay 1: HCV Genotype 1b Replicon Assay
The HCV genotype 1b replicon cell line was obtained from Apath LLC (Brooklyn, N.Y.) (APC144; Huh7 cell background). This subgenomic replicon contains the N-terminus of the HCV core protein fused to the neomycin-resistance selectable marker. The EMCV IRES lies downstream and drives expression of humanized Renilla luciferase fused to the non-structural proteins NS3-NS5B. This cell line was used to determine compound potency using the luciferase activity readout as a measurement of compound inhibition of replicon levels.
(§1) Cells were grown at 37° C. in a 5% CO2 humidified incubator in DMEM (Invitrogen) with 10% FBS (HyClone), 1×NEAA (Invitrogen), 1× Pen-Strep (Invitrogen), and 500 μg/mL G418 (Invitrogen). On day 1 of the assay, cells were plated at 10,000 cells/well in white 96-well tissue culture plates (Costar) in 200 μL media lacking G418. Four hours later, once the cells have adhered, the media was removed and replaced with media (no G418) containing dose-responses of test compounds. Compounds were initially diluted in DMSO and then diluted another 200× in media to bring the final DMSO concentration down to 0.5%. The cells were incubated with test compounds for 48 hours. At the end of the incubation period, media and compound were removed from the plates and the luciferase activity was determined using Promega Renilla-Glo reagents.
To analyze the data, the luciferase activity was plotted vs. the compound concentration, and EC50 values were determined from a 4-parameter robust fit model with the GraphPad Prism software package (GraphPad Software, Inc., San Diego, Calif.). Results are expressed as the negative decadic logarithm of the EC50 value, pEC50.
Test compounds having a higher pEC50 value in this assay show greater inhibition of HCV genotype 1b replication.

[2] = test system: HCV genotype 1a replicon cell line (APC89; Huh7.5 cell background); assay: HCV Genotype 1a Replicon Assay (NS3-specific protease activity readout); assay type: cell-based; conditions: Hepatitis C virus
Protocol: Assay 2: HCV Genotype 1a Replicon Assay
The HCV genotype 1a replicon cell line was obtained from Apath LLC (APC89; Huh7.5 cell background). This subgenomic replicon contains the N-terminus of the HCV core protein fused to the neomycin-resistance selectable marker. The EMCV IRES lies downstream and drives expression of the non-structural proteins NS3-NS5B. Compound potencies were determined using the NS3-specific protease activity in lysates as a measurement of compound inhibition of replicon levels.
as §1, with “850” for “500”, “15,000” for “10,000”, “black” for “white”, “had” for “have”, “48 or 72” for “48”, “plates.” for “plates and the luciferase activity was determined using Promega Renilla-Glo reagents.”
To determine the NS3-specific protease activity in lysates, the cells were lysed at room temperature in 50 μL/well of 50 mM Hepes pH 7.5, 150 mM NaCl, 15% Glycerol, 0.15% Triton X-100, 10 mM DTT for 20 minutes with shaking. 50 μL of an NS3/4a protease-specific FRET substrate (Anaspec RET S1 Cat#22991) was then added to the wells at a final concentration of 15 μM. The plates were incubated at 37° C. for 20 minutes, which corresponds to a timepoint at which the protease activity is still in the linear phase. Protease activity was determined by measuring fluorescence (Excitation: 340 nm; Emission: 509 nm).
To analyze the data, the fluorescence was plotted vs. the compound concentration, and EC50 values were determined from a 4-parameter robust fit model using GraphPad Prism software.

[3] = 72 hour incubation, read-out: Genotype 1a (pEC50 class, HCV genotype 1a replicon assay) (converted)
[4] = compounds incubated for 48 hours, read-out: Genotype 1a (pEC50 class, HCV genotype 1a replicon assay), * results (converted)

Row | Structure (SMILES) | EC50 [1] | EC50 [2, 3] | EC50 [2, 4]
1 | COC(=O)N[C@H](C(=O)N1CCC[C@H]1c1nc(-c2ccc(-c3ccc(NC(=O)c4ccc(N5CCN(C(=O)[C@H]6CC6(C)C)C[C@H]5C)nc4)cc3OC(F)(F)F)cc2)c[nH]1)C(C)C [Example 25, [(S)-1-((S)-2-{5-[4′-({6-[(R)-4-((S)-2,2-Dimethyl-cyclopropanecarbonyl)-2-methyl-piperazin-1-yl]-pyridine-3-carbonyl}-amino)-2′-trifluoromethoxy-biphenyl-4-yl]-1H-imidazol-2-yl}-pyrrolidine-1-carbonyl)-2-methyl-propyl]-carbamic acid methyl ester] | < 0.1 nM | < 0.1 nM | 
2 | COC(=O)N[C@H](C(=O)N1CCC[C@H]1c1nc(-c2ccc(-c3ccc(C(=O)Nc4ccc(N5CCN(C(=O)C6CC6)CC5)cc4)cc3)cc2)c[nH]1)C(C)C [Example 7, {(S)-1-[(S)-2-(4-{4′-[4-(4-cyclopropanecarbonyl-piperazin-1-yl)-phenylcarbamoyl]-biphenyl-4-yl}-1H-imidazol-2-yl)-pyrrolidine-1-carbonyl]-2-methyl-propyl}-carbamic acid methyl ester] | < 0.1 nM |  | 1 to 10 nM
3 | COC(=O)N[C@H](C(=O)N1CCC[C@H]1c1nc(-c2ccc(-c3ccc(NC(=O)c4ccc(N5CCN(C(=O)[C@]6(C)CCCN6C(C)=O)C[C@H]5C)nc4)cc3C)cc2)c[nH]1)C(C)C [Example 15, [(S)-1-((S)-2-{5-[4′-({6-[(R)-4-((S)-1-Acetyl-2-methyl-pyrrolidine-2-carbonyl)2-methyl-piperazin-1-yl]-pyridine-3-carbonyl}-amino)-2′-methyl-biphenyl-4-yl]-1H-imidazol-2-yl}-pyrrolidine-1-carbonyl)-2-methyl-propyl]-carbamic acid methyl ester] | < 0.1 nM | < 0.1 nM | 
4 | CCN(CC)[C@@H](C(=O)N1CCC[C@H]1c1nc(-c2ccc(-c3ccc(NC(=O)c4ccc(N5CCN(C(=O)C6CC6)CC5)cc4)cc3)cc2)c[nH]1)c1ccccc1 [Example 9, 4-(4-Cyclopropanecarbonyl-piperazin-1-yl)-N-(4′-{2-[(S)-1-((R)-2-diethylamino-2-phenyl-acetyl)-pyrrolidin-2-yl]-1H-imidazol-4-yl}-biphenyl-4-yl)-benzamide] | < 0.1 nM |  | 0.1 to 1 nM
5 | COC(=O)N[C@H](C(=O)N1CCC[C@H]1c1nc(-c2ccc(-c3ccc(NC(=O)c4ccc(N5CCN(C(=O)[C@H]6CC6(C)C)C[C@H]5C)nc4)cc3F)c(F)c2)c[nH]1)C(C)C [Example 50, [(S)-1-((S)-2-{4-[4′-({6-[(R)-4-((S)-2,2-dimethyl-cyclopropanecarbonyl)-2-methyl-piperazin-1-yl]-pyridine-3-carbonyl}-amino)-2,2′-difluoro-biphenyl-4-yl]-1H-imidazol-2-yl}-pyrrolidine-1-carbonyl)-2-methyl-propyl]-carbamicacid methyl ester] | < 0.1 nM | < 0.1 nM | 
6 | COC(=O)N[C@H](C(=O)N1CCC[C@H]1c1nc(-c2ccc(-c3ccc(NC(=O)c4ccc(N5CCN(C(=O)[C@H]6CC6(C)C)C[C@H]5C)nc4)cc3C(F)(F)F)cc2)c[nH]1)C(C)C [Example 34, [(S)-1-((S)-2-{5-[4′-({6-[(R)-4-((S)-2,2-Dimethyl-cyclopropanecarbonyl)-2-methyl-piperazin-1-yl]-pyridine-3-carbonyl}-amino)-2′-trifluoromethyl-biphenyl-4-yl]-1H-imidazol-2-yl}-pyrrolidine-1-carbonyl)-2-methyl-propyl]-carbamic acid methyl ester] | < 0.1 nM | < 0.1 nM | 
7 | CNC(=O)N1CCN(c2ccc(C(=O)Nc3cc(F)c(-c4ccc(-c5c[nH]c([C@@H]6CCCN6C(=O)[C@@H](NC(=O)OC)C(C)C)n5)cc4)c(F)c3)cn2)[C@H](C)C1 [Example 43] | < 0.1 nM | 0.1 to 1 nM | 
8 | COC(=O)N[C@H](C(=O)N1CCC[C@H]1c1nc(-c2ccc(-c3cc(F)c(NC(=O)c4ccc(N5C[C@H](C)N(C(=O)[C@H]6CC6(C)C)C[C@H]5C)nc4)cc3OC(F)(F)F)cc2)c[nH]1)C(C)C [Example 57] | < 0.1 nM | < 0.1 nM | 
9 | COC(=O)N[C@H](C(=O)N1CCC[C@H]1c1nc(-c2ccc(-c3ccc(NC(=O)c4ccc(N5C[C@H](C)N(C(=O)[C@H]6CC6(C)C)C[C@H]5C)nc4)cc3C)c(C)c2)c[nH]1)C(C)C [Example 39, [(S)-1-((S)-2-{4-[4′-({6-[(2R,5S)-4-((S)-2,2-Dimethyl-cyclopropanecarbonyl)-2,5-dimethyl-piperazin-1-yl]-pyridine-3-carbonyl}-amino)-2,2′-dimethyl-biphenyl-4-yl]-1H-imidazol-2-yl}-pyrrolidine-1-carbonyl)-2-methyl-propyl]-carbamic acid methyl ester] | < 0.1 nM | < 0.1 nM | 
10 | COC(=O)N[C@H](C(=O)N1CCC[C@H]1c1nc(-c2ccc(-c3ccc(NC(=O)c4ccc(N5CCN(C(=O)c6c[nH]cn6)C[C@H]5C)nc4)cc3F)cc2)c[nH]1)C(C)C [Example 48] | < 0.1 nM | 0.1 to 1 nM | 
11 | CNC(=O)N1CCC[C@@]1(C)C(=O)N1CCN(c2ccc(C(=O)Nc3cc(OC(F)(F)F)c(-c4ccc(-c5c[nH]c([C@@H]6CCCN6C(=O)[C@@H](NC(=O)OC)C(C)C)n5)cc4)cc3F)cn2)[C@H](C)C1 [Example 27-47] | < 0.1 nM | < 0.1 nM | 
12 | CNC(=O)N1C[C@@H](C)N(c2ccc(C(=O)Nc3cc(OC(F)(F)F)c(-c4ccc(-c5c[nH]c([C@@H]6CCCN6C(=O)[C@@H](NC(=O)OC)C(C)C)n5)cc4)cc3Cl)cn2)C[C@@H]1C [Example 28-36] | < 0.1 nM | < 0.1 nM | 
13 | COC(=O)N[C@H](C(=O)N1CCC[C@H]1c1nc(-c2ccc(-c3ccc(NC(=O)c4ccc(N5C[C@H](C)N(C(=O)[C@H]6CC6(C)C)C[C@H]5C)nc4)c(C)n3)cc2)c[nH]1)C(C)C [Example 71, {(S)-1-[(S)-2-(4-{4-[5-({6-[(2R,5S)-4-((S)-2,2-Dimethyl-cyclopropanecarbonyl)-2,5-dimethyl-piperazin-1-yl]-pyridine-3-carbonyl}-amino)-6-methyl-pyridin-2-yl]-phenyl}-1H-imidazol-2-yl)-pyrrolidine-1-carbonyl]-2-methyl-propyl}-carbamic acid methyl ester] | < 0.1 nM | 0.1 to 1 nM | 
14 | COC(=O)N[C@H](C(=O)N1CCC[C@H]1c1nc(-c2ccc(-c3ccc(NC(=O)c4ccc(N5C[C@H](C)N(C(=O)C6CC6)C[C@H]5C)nc4)cc3OC(F)(F)F)cc2)c[nH]1)C(C)C [Example 30] | < 0.1 nM | < 0.1 nM | 
15 | COC(=O)N[C@H](C(=O)N1CCC[C@H]1c1nc(-c2ccc(-c3cc(F)c(NC(=O)c4ccc(N5CCN(C(=O)c6cc[nH]n6)C[C@H]5C)nc4)cc3OC(F)(F)F)cc2)c[nH]1)C(C)C [Example 27-34] | < 0.1 nM | < 0.1 nM | 
16 | COCC(=O)N1CCC[C@@]1(C)C(=O)N1CCN(c2ccc(C(=O)Nc3cc(OC(F)(F)F)c(-c4ccc(-c5c[nH]c([C@@H]6CCCN6C(=O)[C@@H](NC(=O)OC)C(C)C)n5)cc4)cc3F)cn2)[C@H](C)C1 [Example 27-46] | < 0.1 nM | < 0.1 nM | 
